Test results from patent US11724999B2, “Inhibitors of RAS-effector protein interactions” (Oxford University Innovation Limited, priority 2018, dated 2023).

How the values were obtained:
[1] = system: H358 cells (ATCC CRL-5807); assay: Cell viability assay (CellTiter-Glo), H358 cells; type: cell-based; conditions: Homo sapiens, NCI-H358, 48 h incubation, first value of the cell, read-out: Cell Viability (μM) H358 (concentration that decreases cell viability by 50%)
Method: (§1) Cells (A549 ATCC CCL-185) are cultured in Dulbecco's Modified Eagle's Medium plus 10% foetal calf serum and 2 mM L-glutamine at 37° C., 5% CO2. Cells are plated onto white clear bottom 96-well plates (5000 cells/well in 200 μl media) and left to adhere overnight at 37° C., 5% CO2. Next day, test compound (1 μl at 200× concentration in 100% DMSO) is added to give final test compound concentration 1× in 0.5% DMSO. After 48 h of incubation at 37° C., 5% CO2, 20 μl CellTiter-Glo reagent (Promega G7572) is added into each well. Plates are incubated at room temperature with shaking for 30 min and then luminescence is read using a PheraStar plate reader. The concentration of compounds that decrease cell viability by 50% is calculated from dose response curves generated using Dotmatics data analysis software.
In the H358 cell assay, cells (ATCC CRL-5807) are cultured in RPM-1640 medium plus 10% foetal calf serum and 2 mM L-glutamine at 37° C., 5% CO2.

[2] = target: T1, GST-human KRas166 (G12V) GPPNHP (Homo sapiens, UniProt P01116, G12V); assay: KRas small-molecule screening by SPR (BIACORE T200); type: binding; conditions: compound at final concentration of 100 uM; immobilised GST-KRAS166 (G12V) GPPNHP, GST reference channel
T1 construct: made in house; host or cells: E. coli C41(DE3)
Method: For SPR assays pGEX-KRAS(G12V) plasmid was transformed into E. coli C41(DE3). Bacterial cells were cultured at 37° C. to an OD600 of 0.6 and induced with IPTG (final 0.1 mM) at 18° C. overnight. The GST fusion proteins were extracted from bacteria pellets after cell disruption in 140 mM NaCl, 2.7 mM KCl, […], 1.8 mM KH2PO4, 1 mM EDTA, 2 mM MgCl2 pH 7.4 and purified by glutathione-sepharose column chromatography (GE Healthcare), eluting with 50 mM Tris-HCl pH8.0, 10 mM reduced glutathione, 1 mM DTT, 2 mM MgC2. The eluted proteins were dialysed against 50 mM Tris-HCl pH8.0, 1 mM DTT, 2 mM MgCl2 and concentrated to 10 mg/ml using a Biomax-30 […]-15 centrifugal filter device (Millipore). Purified KRAS protein was loaded with GPPNHP as described elsewhere (Pacold et al., 2000). Loaded protein was then purified by gel filtration on a HiLoad Superdex-75 HR column (GE Healthcare) in 1×PBS pH7.4, 5 mM MgCl2 and concentrated for storage.
To a previously immobilized CM5 chip (GE Healthcare BR-1005-30) with anti GST antibody via amine coupling method, GST in channel 1 and GST-human KRas166 (G12V) GPPNHP in channel 2 were immobilised. GST was immobilised between 2,000 and 5,000 Response units. KRAS166 (G12V) was immobilized between 10,000 to 15,000 Response Units.
In a 96 well plate, compounds were diluted in […], 5 mM MgCl2 and 5% DMSO Buffer to a final concentration of 100 uM. DCAI was used as positive control. Experiment also included a solvent correction curve for 5% DMSO. Screening and evaluation of the protein immobilization and the compounds screening was done accordingly to the BIACORE T200 control and evaluation software.
Protein immobilisation: 10,000 RU; average fragment 300 Da in size. Rmax=(MWA/MWL)×RL×SM MWA is the molecular weight of the analyte in Da MWL is the molecular weight of the ligand in Da RL is the immobilization level in RU SM is the molar stoichiometry (assume 1:1) Rmax=300/47,500×10,000×1 Rmax=63 RU. Cell Viability Assay protocols

[3] = system: DLD1 cells (ATCC CCL-221); assay: Cell viability assay (CellTiter-Glo), DLD1 cells; type: cell-based; conditions: Homo sapiens, DLD-1 cells, 48 h incubation, second value of the cell, read-out: Cell Viability (μM) DLD-1 (concentration that decreases cell viability by 50%)
Method: as §1
In the DLD1 cell assay, cells (ATCC CCL-221) are cultured in RPMI-1640 medium plus 10% foetal calf serum and 2 mM L-glutamine at 37° C., 5% CO2.

SMILES	IC50 [1] [µM]	SPR Response Units [2] [Response Units]	IC50 [3] [µM]
CN1CCC(C(=O)NC[C@@H]2COc3ccc(OCc4ccc(F)cc4)cc3O2)CC1 [Example 31, 1-Methyl-piperidine-4-carboxylic acid [(R)-7-(4-fluoro-benzyloxy)-2,3-dihydro-benzo[1,4]dioxin-2-ylmethyl]-amide]	18.2	28	9.6
Cc1ccccc1COc1ccc2c(c1)O[C@H](CNC(=O)C1CCN(C)CC1)CO2 [Example 32, 1-Methyl-piperidine-4-carboxylic acid [(R)-7-(2-methyl-benzyloxy)-2,3-dihydro-benzo[1,4]dioxin-2-ylmethyl]-amide]	26.2	37	15.9
CN(C)CCCOc1ccc(CN(C[C@@H]2COc3ccc(OCc4ccccc4)cc3O2)C(=O)c2ncco2)cc1 [Example 40, Oxazole-2-carboxylic acid ((R)-7-benzyloxy-2,3-dihydro-benzo[1,4]dioxin-2-ylmethyl)-[4-(3-dimethylamino-propoxy)-benzyl]-amide]	14	173	2
CC(C)(C)OC(=O)NCc1ccc(CN(C[C@@H]2COc3ccc(OCc4ccccc4)cc3O2)C(=O)c2ncco2)cc1 [Example 41, (4-{[((R)-7-Benzyloxy-2,3-dihydro-benzo[1,4]dioxin-2-ylmethyl)-(oxazole-2-carbonyl)-amino]-methyl}-benzyl)-carbamic acid tert-butyl ester]	74	7	16
O=C(c1ncco1)N(CC1CCN(Cc2ccccc2)CC1)C[C@@H]1COc2ccc(OCc3ccccc3)cc2O1 [Example 42, Oxazole-2-carboxylic acid ((R)-7-benzyloxy-2,3-dihydro-benzo[1,4]dioxin-2-ylmethyl)-(1-benzyl-piperidin-4-ylmethyl)-amide]	29	93	3
O=C(c1ncco1)N(C[C@@H]1COc2ccc(OCc3ccccc3)cc2O1)C1CCN(Cc2ccccc2)CC1 [Example 43, Oxazole-2-carboxylic acid ((R)-7-benzyloxy-2,3-dihydro-benzo[1,4]dioxin-2-ylmethyl)-(1-benzyl-piperidin-4-yl)-amide]	20.8	35	18.5
NCc1ccc(CN(C[C@@H]2COc3ccc(OCc4ccccc4)cc3O2)C(=O)c2ncco2)cc1 [Example 44, Oxazole-2-carboxylic acid (4-aminomethyl-benzyl)-((R)-7-benzyloxy-2,3-dihydro-benzo[1,4]dioxin-2-ylmethyl)-amide]	> 100	221	9
c1ccc(COc2ccc3c(c2)O[C@H](CNC2CCNCC2)CO3)cc1 [Example 45, ((R)-7-Benzyloxy-2,3-dihydro-benzo[1,4]dioxin-2-ylmethyl)-piperidin-4-yl-amine]	26.3	22	9.6
CN1CCC(CNC[C@@H]2COc3ccc(OCc4ccccc4)cc3O2)CC1 [Example 46, ((R)-7-Benzyloxy-2,3-dihydro-benzo[1,4]dioxin-2-ylmethyl)-(1-methyl-piperidin-4-ylmethyl)-amine]	16	75	2
O=C1CCCN1CC(NC[C@@H]1COc2ccc(OCc3ccccc3)cc2O1)c1ccccc1 (stereo partly drawn) [Example 47, 1-{2-[((R)-7-Benzyloxy-2,3-dihydro-benzo[1,4]dioxin-2-ylmethyl)-amino]-2-phenyl-ethyl}-pyrrolidin-2-one]	35	48	15.7
CN(C)CC(=O)N[C@H]1CC[C@@H](NC[C@@H]2COc3ccc(OCc4ccccc4)cc3O2)CC1 [Example 50, N-{4-[((R)-7-Benzyloxy-2,3-dihydro-benzo[1,4]dioxin-2-ylmethyl)-amino]-cyclohexyl}-2-dimethylamino-acetamide]	28	70	5
